Assay results taken from PubChem BioAssay (NCI).
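Protocol summary: plate cells (96-well), add compound at 5 concentrations, incubate 48 h, interpolate endpoints linearly. Here, GI50 denotes the concentration required for 50% inhibition of growth. TGI denotes the concentration required for complete inhibition of growth.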

Columns and labels:
Assay in all cases: NCI tumour cell line growth inhibition, 48 h
[1] = test system: A498 renal
[2] = test system: A549 NSCLC
[3] = test system: CAKI-1 renal
[4] = test system: CCRF-CEM leukemia
[5] = test system: COLO 205 colon
[6] = test system: DLD-1 colon
[7] = test system: DMS 114 small cell lung
[8] = test system: DMS 273 small cell lung
[9] = test system: EKVX NSCLC
[10] = test system: HCC-2998 colon
[11] = test system: HCT-116 colon
[12] = test system: HCT-15 colon
[13] = test system: HL-60(TB) leukemia
[14] = test system: HOP-18 NSCLC
[15] = test system: HOP-62 NSCLC
[16] = test system: HOP-92 NSCLC
[17] = test system: HT29 colon
[18] = test system: IGROV1 ovarian
[19] = test system: K-562 leukemia
[20] = test system: KM12 colon
[21] = test system: KM20L2 colon
[22] = test system: LOX IMVI melanoma
[23] = test system: M19-MEL melanoma
[24] = test system: MALME-3M melanoma
[25] = test system: MCF7 breast
[26] = test system: MOLT-4 leukemia
[27] = test system: NCI-H226 lung
[28] = test system: NCI-H23 lung
[29] = test system: NCI-H460 lung
[30] = test system: NCI-H522 lung
[31] = test system: NCI/ADR-RES ovarian
[32] = test system: OVCAR-3 ovarian
[33] = test system: OVCAR-4 ovarian
[34] = test system: OVCAR-5 ovarian
[35] = test system: OVCAR-8 ovarian
[36] = test system: P388 leukemia
[37] = test system: P388/ADR leukemia
[38] = test system: RPMI-8226 leukemia
[39] = test system: RXF 393 renal
[40] = test system: SF-268 CNS
[41] = test system: SF-295 CNS
[42] = test system: SF-539 CNS
[43] = test system: SK-MEL-2 melanoma
[44] = test system: SK-MEL-28 melanoma
[45] = test system: SK-MEL-5 melanoma
[46] = test system: SK-OV-3 ovarian
[47] = test system: SN12C renal
[48] = test system: SN12K1 renal
[49] = test system: SNB-19 CNS
[50] = test system: SNB-75 CNS
[51] = test system: SNB-78 CNS
[52] = test system: SW-620 colon
[53] = test system: U251 CNS
[54] = test system: UACC-257 melanoma
[55] = test system: UACC-62 melanoma
[56] = test system: UO-31 renal
[57] = test system: XF 498 CNS
[58] = test system: 786-0 renal
[59] = test system: ACHN renal
[60] = test system: BT-549 breast
[61] = test system: DU-145 prostate
[62] = test system: HS 578T breast
[63] = test system: M14 melanoma
[64] = test system: MDA-MB-231 breast
[65] = test system: MDA-MB-435
[66] = test system: MDA-N
[67] = test system: PC-3 prostate
[68] = test system: T-47D breast
[69] = test system: TK-10 renal

COC(=O)C1C(O)C(C)C(O)C(C)(O)/C=C/C=C(C)C(=O)Nc2c(C)c(OC(C)=O)c3c(c2O)C(=O)C(C)=C2OCOC(=C23)C(C)=CC(C)(O)C(O)C(C)C1OC(C)=O (configuration not stated)
TGI [1]: > 56.2 µM
TGI [2]: > 100 µM
GI50 [3]: 37.1 µM
TGI [3]: 86.9 µM
GI50 [4]: 28.1 µM
TGI [4]: 55.8 µM
TGI [5]: 39.3 µM
TGI [6]: 43.3 µM
TGI [7]: 25.4 µM
TGI [8]: > 100 µM
TGI [9]: 67.8 µM
TGI [10]: 85.5 µM
GI50 [11]: 18.1 µM
TGI [11]: 34.5 µM
TGI [12]: 69.6 µM
TGI [13]: 49.8 µM
TGI [14]: > 100 µM
TGI [15]: > 100 µM
GI50 [16]: 15.9 µM
TGI [16]: 35.1 µM
TGI [17]: > 92.7 µM
TGI [18]: 80.5 µM
GI50 [19]: 30.7 µM
TGI [19]: 60.5 µM
GI50 [20]: 19.2 µM
TGI [20]: 35.2 µM
TGI [21]: > 88.6 µM
TGI [22]: 41.2 µM
TGI [23]: 31.8 µM
GI50 [24]: 22.6 µM
TGI [24]: 43.8 µM
TGI [25]: 34.5 µM
TGI [26]: 54.8 µM
GI50 [27]: 50.7 µM
TGI [27]: > 100 µM
TGI [28]: 52.7 µM
GI50 [29]: 19.9 µM
TGI [29]: 38.6 µM
TGI [30]: 56 µM
TGI [31]: > 100 µM
GI50 [32]: 22.4 µM
TGI [32]: 63.1 µM
TGI [33]: > 100 µM
TGI [34]: > 100 µM
GI50 [35]: 42.9 µM
TGI [35]: 92.1 µM
TGI [36]: 52.2 µM
TGI [37]: > 83.1 µM
GI50 [38]: 27.1 µM
TGI [38]: 54.9 µM
TGI [39]: 33.4 µM
GI50 [40]: 39.9 µM
TGI [40]: 75.8 µM
TGI [41]: > 100 µM
TGI [42]: 76.4 µM
TGI [43]: 39.7 µM
GI50 [44]: 33.4 µM
TGI [44]: 59.7 µM
TGI [45]: > 78.5 µM
TGI [46]: > 100 µM
TGI [47]: 47.9 µM
TGI [48]: 60.8 µM
TGI [49]: > 100 µM
TGI [50]: > 63.1 µM
GI50 [51]: 37.9 µM
TGI [51]: 91.2 µM
GI50 [52]: 31.6 µM
TGI [52]: 63.3 µM
TGI [53]: > 100 µM
GI50 [54]: 20.1 µM
TGI [54]: 44.8 µM
TGI [55]: 47.7 µM
TGI [56]: > 100 µM

Cc1ccc2cc3cccc(C(=O)NCCN(C)C)c3nc2c1
TGI [1]: 2.37 µM
TGI [2]: 5.05 µM
TGI [3]: 10.8 µM
TGI [4]: 5.54 µM
TGI [5]: 2.51 µM
TGI [6]: 8.36 µM
TGI [7]: 2.58 µM
TGI [8]: 2.8 µM
TGI [9]: 3.44 µM
TGI [10]: 3.04 µM
TGI [11]: 6.23 µM
TGI [12]: 9.17 µM
TGI [13]: 2.49 µM
TGI [14]: 7.36 µM
TGI [15]: 6.17 µM
TGI [16]: 2.75 µM
TGI [17]: 2.67 µM
TGI [18]: 9.09 µM
TGI [19]: > 31.3 µM
TGI [20]: 10 µM
TGI [21]: 3.08 µM
TGI [22]: 6.08 µM
TGI [23]: 3.01 µM
TGI [24]: 2.49 µM
TGI [25]: 5.19 µM
TGI [27]: 4.16 µM
TGI [28]: 3.4 µM
TGI [29]: 1.94 µM
TGI [31]: 5.07 µM
TGI [32]: 5.67 µM
TGI [33]: 6.11 µM
TGI [34]: 4.28 µM
TGI [35]: 6.45 µM
TGI [36]: 1.26 µM
TGI [37]: 1.46 µM
TGI [38]: 7.42 µM
TGI [39]: 2.73 µM
TGI [40]: 4.03 µM
TGI [41]: 3.91 µM
TGI [42]: 3.57 µM
TGI [43]: 3.55 µM
TGI [44]: 3.39 µM
TGI [45]: 2.66 µM
TGI [46]: 7.87 µM
TGI [47]: 6.39 µM
TGI [48]: 5.59 µM
TGI [49]: 8.1 µM
TGI [50]: 4.75 µM
TGI [51]: 7.78 µM
TGI [52]: 6.46 µM
TGI [53]: 9.2 µM
TGI [54]: 2.74 µM
TGI [55]: 3.16 µM
TGI [56]: 3.19 µM
TGI [57]: 3.68 µM

COC(=O)C12OCC34C(CC5C(C)=C(O)C(=O)CC5(C)C3C(O)C1O)OC(=O)C(OC(=O)C=C(C)C)C24 (configuration not stated)
TGI [58]: 0.689 µM
TGI [1]: > 500 µM
TGI [2]: > 500 µM
TGI [59]: 0.463 µM
TGI [60]: 0.726 µM
GI50 [3]: 0.899 µM
TGI [5]: > 500 µM
TGI [6]: > 79.3 µM
TGI [7]: > 460 µM
TGI [8]: > 500 µM
TGI [61]: > 8.12 µM
TGI [9]: > 500 µM
GI50 [10]: < 0.156 µM
GI50 [11]: 0.226 µM
GI50 [12]: 0.456 µM
TGI [13]: > 500 µM
TGI [14]: > 500 µM
TGI [15]: > 500 µM
TGI [16]: 494 µM
TGI [62]: 2.03 µM
GI50 [17]: < 0.215 µM
TGI [17]: > 500 µM
TGI [18]: > 500 µM
GI50 [19]: < 0.215 µM
GI50 [20]: < 0.215 µM
TGI [20]: > 500 µM
TGI [21]: > 500 µM
TGI [22]: > 500 µM
TGI [63]: 0.359 µM
TGI [23]: > 500 µM
GI50 [24]: < 0.215 µM
TGI [25]: > 500 µM
TGI [64]: 0.0905 µM
TGI [65]: 0.905 µM
TGI [66]: 0.481 µM
TGI [26]: > 500 µM
GI50 [27]: < 0.215 µM
GI50 [28]: < 0.215 µM
TGI [29]: > 316 µM
GI50 [30]: < 0.215 µM
GI50 [31]: 4.34 µM
TGI [32]: > 500 µM
GI50 [33]: > 500 µM
GI50 [34]: 0.245 µM
GI50 [35]: 0.222 µM
TGI [36]: > 500 µM
TGI [37]: > 500 µM
TGI [67]: 0.631 µM
TGI [38]: > 500 µM
GI50 [39]: 0.231 µM
GI50 [40]: 0.344 µM
TGI [40]: > 500 µM
GI50 [41]: 0.232 µM
TGI [42]: > 500 µM
GI50 [43]: < 0.215 µM
GI50 [44]: < 0.215 µM
GI50 [45]: < 0.215 µM
TGI [46]: > 500 µM
GI50 [47]: 0.32 µM
TGI [48]: > 500 µM
GI50 [49]: < 0.215 µM
TGI [49]: > 500 µM
TGI [51]: > 500 µM
GI50 [52]: 0.231 µM
TGI [52]: > 500 µM
TGI [68]: 0.0789 µM
TGI [69]: 0.582 µM
TGI [53]: > 500 µM
GI50 [54]: 0.231 µM
GI50 [55]: < 0.215 µM
GI50 [56]: 0.576 µM
TGI [57]: > 476 µM

CCN(CC)c1c(C)c(C(=O)OC)nn1-c1ccccc1
TGI [1]: > 100 µM
TGI [2]: > 100 µM
TGI [3]: > 86.3 µM
TGI [4]: > 100 µM
TGI [5]: > 100 µM
TGI [6]: > 100 µM
TGI [7]: > 100 µM
TGI [8]: > 100 µM
TGI [9]: > 100 µM
TGI [10]: > 100 µM
TGI [11]: > 100 µM
TGI [12]: > 100 µM
TGI [13]: > 100 µM
TGI [14]: > 100 µM
TGI [15]: > 100 µM
TGI [16]: > 100 µM
TGI [17]: > 100 µM
TGI [18]: > 100 µM
TGI [19]: > 100 µM
TGI [20]: > 100 µM
TGI [21]: > 100 µM
TGI [22]: > 100 µM
TGI [23]: > 100 µM
TGI [24]: > 100 µM
TGI [25]: > 100 µM
TGI [26]: > 100 µM
TGI [27]: > 100 µM
TGI [28]: > 100 µM
TGI [29]: > 100 µM
TGI [30]: > 100 µM
TGI [31]: > 100 µM
TGI [32]: > 100 µM
TGI [33]: > 100 µM
TGI [34]: > 100 µM
TGI [35]: > 100 µM
TGI [36]: > 100 µM
TGI [37]: > 100 µM
TGI [38]: > 100 µM
TGI [39]: > 100 µM
TGI [40]: > 100 µM
TGI [41]: > 100 µM
TGI [42]: > 100 µM
TGI [43]: > 100 µM
TGI [44]: > 100 µM
TGI [45]: > 100 µM
TGI [46]: > 100 µM
TGI [47]: > 100 µM
TGI [48]: > 100 µM
TGI [49]: > 100 µM
TGI [50]: > 100 µM
TGI [51]: > 100 µM
TGI [52]: > 100 µM
TGI [53]: > 100 µM
TGI [54]: > 100 µM
TGI [55]: > 100 µM
TGI [56]: > 100 µM
TGI [57]: > 100 µM
